The nature of data set [1]: Intrinsic clearance in mouse liver microsomes at 0.5 uM preincubated with NADPH and measured up to 30 mins by LC-MS/MS analysis. Format: ADME, microsome. (Liver microsomes are a subcellular fraction often used to study metabolism.)
The test system of data set [2] is Mycobacterium tuberculosis. Kind of data set: Antimycobacterial activity against Mycobacterium tuberculosis H37Rv ATCC 25618 after 6 days by resazurin-based assay. It is filed as functional. The note with it: H37Rv ATCC 25618, 144 h. In general terms: Alamar Blue is a resazurin reagent that responds to reducing activity.
Data set [3] is described as follows: Intrinsic clearance in human liver microsomes at 0.5 uM preincubated with NADPH and measured up to 30 mins by LC-MS/MS analysis. It is filed as ADME, microsome.

In brackets after ≈: the same amount, converted by molar mass. Bounds are passed on as bounds.

The values that follow come from ChEMBL document CHEMBL4257587 (J Med Chem, 2018).

One may read the MIC90 as an inhibitory concentration at the 90% level, which refers to growth in some studies and to a panel of isolates in others.

In the case of `CC(c1ccc(C(F)(F)F)cc1)N1CCC2(CC1)OCCc1sccc12` (stereo not drawn), the CLH was found to be 18.1 mL/min/g in data set [1] and 4.6 mL/min/g in data set [3]. Further, in data set [2], the MIC90 came to 0.63 µM (≈ 0.24 µg/mL).
Compound `O=C(c1ccc2c(c1)OCCO2)N1CCC2(CC1)OCCc1sccc12` registered an MIC90 in data set [2] of over 80 µM.
As for `Cc1cccc(CN2CCC3(CC2)OCCc2sccc23)c1`, the values for the CLH in data set [1] and in data set [3] were over 30 mL/min/g and 5.2 mL/min/g, respectively. This compound also came in with an MIC90 in data set [2] of 0.63 µM (≈ 0.197 µg/mL).
As for `c1cc2c(s1)CCOC21CCNCC1`, the MIC90 in data set [2] was over 5 µM.
Same read-out and setting: under `Cc1cc(CN2CCC3(CC2)OCCc2sccc23)c(C)n1-c1cccnc1` stands 14 µM (≈ 5.51 µg/mL); under `Cc1cc(CN2CCC3(CC2)OCCc2sccc23)c(C)n1-c1ccccn1`, 14 µM (≈ 5.51 µg/mL).
Regarding `CC(C)(C)c1ccc(CN2CCC3(CC2)OCCc2sccc23)cc1`, the CLH was over 30 mL/min/g in data set [1] and 9.9 mL/min/g in data set [3]. In data set [2], this compound displayed an MIC90 of 0.02 µM (≈ 0.00711 µg/mL).
For `Cc1ccc(CN2CCC3(CC2)OCCc2sccc23)cc1`, in that order: over 30 mL/min/g, 22.5 mL/min/g and 0.2 µM (≈ 0.0627 µg/mL).
In data set [2], `c1cc2c(s1)CCOC21CCN(Cc2cnc3c(c2)OCCO3)CC1` showed an MIC90 of over 5 µM.
Turning to `CC1(CCNCc2ccc3c(c2)OCCO3)OCCc2sccc21` (stereo not drawn), the MIC90 in data set [2] is over 5 µM.
Same read-out and setting: the same measure for `COc1ccc(-n2c(C)cc(CN3CCC4(CC3)OCCc3sccc34)c2C)cc1`: 3 µM (≈ 1.27 µg/mL).
As to `Clc1ccc2c(CN3CCC4(CC3)OCCc3sccc34)c[nH]c2c1`, the CLH was 10.3 mL/min/g in data set [1] and 1.3 mL/min/g in data set [3]. Moreover, the MIC90 in data set [2] came to 0.31 µM (≈ 0.116 µg/mL).
The corresponding values for `c1ccc2c(CN3CCC4(CC3)OCCc3sccc34)c[nH]c2c1` are 7 mL/min/g, 3.1 mL/min/g and 0.94 µM (≈ 0.318 µg/mL).
In data set [2], `COc1ccc2c(c1)CCOC21CCN(Cc2ccc3c(c2)OCCO3)CC1` yielded an MIC90 of over 10 µM.
As to `c1cc2c(s1)CCOC21CCN(Cc2ccc3c(c2)CCCC3)CC1`, the CLH in data set [1] was over 30 mL/min/g; in data set [3], 22.6 mL/min/g. The same compound yielded an MIC90 in data set [2] of 0.02 µM (≈ 0.00707 µg/mL).
The corresponding values for `Cn1cc(CN2CCC3(CC2)OCCc2sccc23)c2ccccc21` are over 30 mL/min/g, 4.5 mL/min/g and 0.63 µM (≈ 0.222 µg/mL).
Consider `Cc1cc(CN2CCC3(CC2)OCCc2sccc23)c(C)n1-c1ccccc1`, for which the MIC90 in data set [2] amounted to 3 µM (≈ 1.18 µg/mL).
Take `Cc1ccc(CN2CCC3(CC2)OCCc2sccc23)[nH]1`: the CLH in data set [1] was 28.7 mL/min/g; in data set [3], 4.1 mL/min/g. Besides, the MIC90 in data set [2] is over 5 µM.
In data set [2], `O=C(Nc1ccc2c(c1)OCCO2)N1CCC2(CC1)OCCc1sccc12` had an MIC90 of over 10 µM.
Regarding `Cc1ccccc1CN1CCC2(CC1)OCCc1sccc12`, in data set [2], the MIC90 was over 5 µM.
The same measure, in the same setting: under `c1ccc2c3c([nH]c2c1)C1(CCN(Cc2ccc4c(c2)OCCO4)CC1)OCC3` stands 93 µM (≈ 36.3 µg/mL); under `c1ccc2c(c1)CCOC21CCN(Cc2ccc3c(c2)OCCO3)CC1`, 0.94 µM (≈ 0.33 µg/mL).
On the same count and under the same terms, under `c1ccc2oc(CN3CCC4(CC3)OCCc3sccc34)cc2c1` stands 2.7 µM (≈ 0.917 µg/mL).
With `c1cc2c(s1)CCOC21CCN(Cc2ccc3c(c2)CCCO3)CC1`, the CLH was over 30 mL/min/g in data set [1] and 2.9 mL/min/g in data set [3]. Also, the MIC90 in data set [2] is 0.23 µM (≈ 0.0818 µg/mL).
In data set [2], `Cc1cc(CN2CCC3(CC2)OCCc2sccc23)c(C)n1-c1ccc(F)cc1` registered an MIC90 of 3 µM (≈ 1.23 µg/mL).
Still for that read-out and setting: the same measure for `c1ccc(CN2CCC3(CC2)OCCc2sccc23)cc1`: over 5 µM; for `c1cc2c(s1)CCOC2CCNCc1ccc2c(c1)OCCO2` (stereo not drawn): over 5 µM.
`Cc1ccc(CN2CCC3(CC2)OCCc2sccc23)cc1C`: the CLH in data set [1] was over 30 mL/min/g; in data set [3], 18.9 mL/min/g. This compound also showed an MIC90 in data set [2] of 0.08 µM (≈ 0.0262 µg/mL).
In turn, `c1ccc2oc(CN3CCC4(CC3)OCCc3ccsc34)cc2c1` registered an MIC90 in data set [2] of over 100 µM.
The same measure, in the same setting: the same measure for `c1cc2c(s1)CCOC21CCN(Cc2ccc3c(c2)OCCO3)C1` (stereo not drawn): over 5 µM; for `O=S(=O)(c1ccc2c(c1)OCCO2)N1CCC2(CC1)OCCc1sccc12`: over 10 µM.
